Test results as given in ChEMBL document CHEMBL2086390, “Design, synthesis and structure-activity relationships of novel benzoxazolone derivatives as 18 kDa translocator protein (TSPO) ligands” (Bioorg Med Chem, 2012).
In brackets after ≈: the same amount, converted by molar mass. One block for each compound: values may come before it.

Legend:
[1] = tested on: Rattus norvegicus; experiment: AUC in rat at 1 mg/kg, iv; format: ADME, organism-based, Plasma; set-up: dose 1 mg/kg, route intravenous; details: in vivo
[2] = Cmax in rat at 10 mg/kg, po; format: ADME, organism-based; set-up: dose 10 mg/kg, route oral; details: in vivo
[3] = AUC in rat at 10 mg/kg, po; format: ADME, organism-based; set-up: dose 10 mg/kg, route oral; details: plasma
[4] = Ratio of AUC in brain to AUC in plasma of rat at 10 mg/kg, po; format: ADME, organism-based; set-up: dose 10 mg/kg, route oral; details: brain and plasma
[5] = Tmax in rat at 10 mg/kg, po; format: ADME, organism-based; set-up: dose 10 mg/kg, route oral; details: in vivo
[6] = Oral bioavailability in rat at 10 mg/kg; format: ADME, organism-based; details: in vivo
[7] = Volume of distribution at steady state in rat at 1 mg/kg, iv; format: ADME, organism-based; set-up: dose 1 mg/kg, route intravenous; details: in vivo, read-out: Vdss
[8] = Aqueous solubility of the compound at pH 7.4; format: physicochemical; details: aqueous solution
[9] = Aqueous solubility of the compound at pH 2.5; format: physicochemical; details: aqueous solution

- AUC [1]: 6042 ng·h/mL
- Cmax [2]: 50.4 ng/mL
- AUC [3]: 8370 ng·h/mL
- Kp [4]: 0.63
- Tmax [5]: 1 h
- bioavailability [6]: 13.9%
- Vd [7]: 4.4 L/kg
SMILES: CN(C(=O)Cn1c(=O)oc2ccc(-c3cccnc3)cc21)c1ccccc1.Cl

- solubility [8]: 45 µg/mL (≈ 125 µM)
SMILES: CN(C(=O)Cn1c(=O)oc2ccc(-c3ccccc3)cc21)c1cccnc1

- solubility [8]: < 1 µg/mL
SMILES: CN(C(=O)Cn1c(=O)oc2ccc(-c3ccccc3)cc21)c1ccccc1

- solubility [9]: 440 µg/mL (≈ 1220 µM)
SMILES: CN(C(=O)Cn1c(=O)oc2ccc(-c3cccnc3)cc21)c1ccccc1
